Experimental data from patent US12691092B2, “Method for reducing cutaneous skin scarring by pre-emptive priming and compounds and compositions for its implementation” (SOS SCIENCE OF SKIN LTD, priority 2020, dated 2026).

Key:
Format in all cases: in vivo, human
HBB, HBA1, HBA2 = experiment: mRNA sequencing of scar biopsies; conditions: group-1, week 4
Procedure: (§1) A double-blind randomized placebo-controlled trial was conducted using a temporal punch-biopsy model. The punch biopsy and topical application methodology used in the study is illustrated in FIG. 1, namely showing pre-injury pre-emptive priming (7-days), pre-injury pre-emptive priming (3-days), day of injury (immediate application on day 0), post-injury (delayed 2 weeks post injury) including biopsy time points and time of topical applications. Each group applied both placebo and topical formulations twice daily for the duration of the study until week 8, with only the starting time point differing between groups Participants were split into 4 groups (n=10 in each group) in order to compare different modes (timings) of commencement of the topical application: • Group-1: Pre-emptive Priming (7-days): pre-injury • Group-2: Pre-emptive Priming (3-days): pre-injury • Group-3: Immediate (0-day): day-of-injury • Group-4: Delayed (14-days): post-injury Clinical quantitative devices were used to objectively monitor cutaneous healing at weekly intervals and punch biopsies were performed on day 0 (uninjured skin) and at weeks 4 and 8 for protein and gene expression analyses. […] Excisional skin biopsies in upper arms were evaluated weekly with multiple quantitative devices over an 8-week period. […]

[1] = test system: Nuclear factor erythroid 2-related factor 2 (NRF2); experiment: NRF2 immunohistochemical marker (anti-oxidant effect); conditions: scar samples, weeks 4 and 8
Procedure: as §1

elastin = experiment: Immunohistochemical analysis of elastin in scar biopsies
Procedure: A double-blind randomized placebo-controlled trial was conducted using a temporal punch-biopsy model. The punch biopsy and topical application methodology used in the study is illustrated in FIG. 1, namely showing pre-injury pre-emptive priming (7-days), pre-injury pre-emptive priming (3-days), day of injury (immediate application on day 0), post-injury (delayed 2 weeks post injury) including biopsy time points and time of topical applications. Each group applied both placebo and topical formulations twice daily for the duration of the study until week 8, with only the starting time point differing between groups Participants were split into 4 groups (n=10 in each group) in order to compare different modes (timings) of commencement of the topical application: • Group-1: Pre-emptive Priming (7-days): pre-injury • Group-2: Pre-emptive Priming (3-days): pre-injury • Group-3: Immediate (0-day): day-of-injury • Group-4: Delayed (14-days): post-injury Clinical quantitative devices were used to objectively monitor cutaneous healing at weekly intervals and punch biopsies were performed on day 0 (uninjured skin) and at weeks 4 and 8 for protein and gene expression analyses. In the trial, topical EGCG and a placebo topical were applied twice daily for the duration of the trial until week 8 with only the starting time points differing between groups. Clinical and experimental analysis involved use of non-invasive devices as well as protein and gene studies. Excisional skin biopsies in upper arms were evaluated weekly with multiple quantitative devices over an 8-week period. Immunohistochemical analyses, mRNA sequencing and QRT-PCR were performed on tissue biopsies. […] There was also a significant increase at week-4 in group-1 only by 12% with EGCG (P=0.01). Between group analysis indicated a significant difference at week-8 (p=0.001). The greatest differences were in group-1 compared to groups-3 by 20% (p=0.008) and group-4 by 20% (p=0.003) and in group-2 compared to group-4 by 17% (p=0.009).

## O=C(OC1Cc2c(O)cc(O)cc2OC1c1cc(O)c(O)c(O)c1)c1cc(O)c(O)c(O)c1 (single isomer, unassigned; (-)) [EGCG, (-)-epigallocatechin-3-gallate]
HBB, HBA1, HBA2
  mRNA sequencing: HBB, HBA1 and HBA2 expression with EGCG compared to placebo: reduced
[1]
  NRF2 amounts, EGCG samples compared to placebo: slightly higher amounts of NRF2 compared to placebo samples, although not significantly
elastin; primed uninjured skin prior to injury
  Elastin levels in primed uninjured skin: increases elastin levels
elastin; week 4, group-1 only, P=0.01
  Elastin (immunohistochemical) increase with EGCG: 12%
elastin; week 8, all groups, p<0.01
  Elastin (immunohistochemical), EGCG-treated samples compared to placebo: up-regulated
elastin; week 8, 3-day priming vs delayed, p=0.009
  Elastin: difference of group-2 compared to group-4: 17%
elastin; week 8, 7-day priming vs delayed, p=0.003
  Elastin: difference of group-1 compared to group-4: 20%
elastin; week 8, 7-day priming vs immediate, p=0.008
  Elastin: difference of group-1 compared to group-3: 20%
